# Tested on: 422866-222-R5-J1-PDC complex spheroid viability
# Experiment: Anticancer human tumor 422866-222-R5-J1-PDC patient-derived pancreatic adenocarcinoma cell line growth inhibition [POLQ]
# Conditions: for IC50: curve of first compound; for viability, T/C: stronger effect = lower value
# Method: Multicellular complex tumor spheroid response to Polymerase (POL) inhibitors (novobiocin, ART-558, RP6685) in combination with a variety of drugs and investigational agents in selected tumor cell lines
# The POL inhibitors (novobiocin, ART-558, and RP6685) were evaluated both individually and in combination with standard of care and investigational anticancer small molecules within a complex spheroid model of solid tumors. . Complex spheroids include a stromal component modeled by human endothelial cells (HUVEC) and fibroblasts modeled by human mesenchymal stem cells (MSCs). The concentration ranges selected for each drug and investigational agent were based upon clinically achievable concentrations if the clinical Cmax of the agent was known.
# Compounds. The drugs and investigational agents: novobiocin (NSC847541), ART-558 (NSC835418), RP-6685 (NSC848927), peposertib (NSC802822), ceralasertib (NSC780249), elimusertib (NSC800525), camonsertib (NSC841442), AZD-1390 (NSC803789), olaparib (NSC753686), talazoparib (NSC767125), rucaparib (NSC756644), sotorasib (NSC818433), MRTX-1133 (NSC836407), SN-38 (NSC673596), topotecan (NSC609699), epotoside (NSC141540), doxorubicin (NSC123127), gemcitabine (NSC613327), 5-fluorouracil (NSC19893), paclitaxel (NSC125973), vemurafenib (NSC761431), MSA-2 (NSC828583), SN-011 (NSC837082), adavosertib (NSC754352), prexasertib (NSC758257), carboplatin (NSC241240) and oxaliplatin (NSC266046), were obtained from the National Cancer Institute (NCI) Developmental Therapeutics Program Chemical Repository (21). The FDA-approved anticancer drug set is available from the Developmental Therapeutics Program at https://dtp.cancer.gov/organization/dscb/obtaining/. […] The stock solutions were prepared in dimethyl sulfoxide (DMSO, Sigma-Aldrich, St. Louis, MO, cat. D2650), except for the platinum compounds which were prepared in saline (Quality Biological, Gaithersburg, MD, cat. 114-055-101), at 800-fold the tested concentration and stored at -70 degrees C prior to their use. All drugs and investigational agents were tested over a range starting from a high concentration at or near the clinical Cmax and decreasing in half-log increments. If the clinical Cmax for an agent had not been determined, the highest concentration tested was 10 microM, except for SN-38, which was tested at a high concentration of 1 microM.
# Cell Culture. All cells were maintained in an incubator at 37 degrees C and 5% CO2 with 95% humidity. The PDC lines were cultured according to standard operating procedures established by the NCI PDMR (https://pdmr.cancer.gov). Table 3 of the manuscript, lists the cell lines along with the number of the three cell types plated to form the mct-spheroids and media for tumor cell growth. After thawing, all PDC lines, except 997537-175-T-J1-PDC and 415267-285-R-J2-PDC, were cultured in Matrigel-coated flasks prepared with a working solution of 1X Ham's F-12 nutrient mix, without supplementation (Thermo Fisher Scientific, cat. 11765054), 100 U/mL penicillin-streptomycin (Thermo Fisher Scientific, cat. 15140122), and 2.5% Matrigel (Corning Inc., Corning, NY, cat. 354248) for the first three passages. The two PDC lines 997537-175-T-J1-PDC and 415267-285-R-J2-PDC were cultured on uncoated flasks. The 857933-349-R-J2-PDC line was cultured in 6C/Colon 1B media containing advanced DMEM/F-12 (Thermo Fisher Scientific, cat. 12634028), 10 mM HEPES (Thermo Fisher Scientific, cat. 15630080), 1X GlutaMAX supplement (Thermo Fisher Scientific, cat. 35050061), 0.1 mg/mL primocin (InvivoGen, San Diego, CA, cat. ant-pm-2), 10% defined fetal bovine serum, heat inactivated (HyClone Laboratories Inc., Logan, UT, cat. SH30070.03HI), 50% L-WRN conditioned media (ATCC, cat. CRL-3276), 1.25 mM N-Acetyl-L-cysteine (Sigma-Aldrich, cat. A9165), 10 mM nicotinamide (Sigma-Aldrich, cat. N0636), 1X B-27 supplement (Thermo Fisher Scientific, cat. 17504044), 1X N-2 supplement (Thermo Fisher Scientific, cat. […]
# 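Further: spheroids exposed to compounds for one week before readout.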
# 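Wherever viability, T/C is given: percent of DMSO vehicle wells luminescence so 100% = untreated viability.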
smiles,measurement,setting,value
COc1cc2cc(C(=O)CCC(=O)O)sc2cc1OC + Nc1ccc(C#CCN(C(=O)Cc2ncc(C(F)(F)F)cc2C(F)(F)F)c2ccc(F)cc2)nn1,IC50,second compound 0.0316 µM,> 10 µM
same,IC50,second compound 0.1 µM,> 10 µM
same,IC50,second compound 0.316 µM,> 10 µM
same,IC50,second compound 1 µM,> 10 µM
same,IC50,second compound 3.16 µM,> 10 µM
same,IC50,second compound 10 µM,> 10 µM
same,"viability, T/C","second compound 0.0316 µM, first compound 0.0316 µM",84%
same,"viability, T/C","second compound 0.0316 µM, first compound 0.1 µM",97.2%
same,"viability, T/C","second compound 0.0316 µM, first compound 0.316 µM",94.5%
same,"viability, T/C","second compound 0.0316 µM, first compound 1 µM",115%
same,"viability, T/C","second compound 0.0316 µM, first compound 3.16 µM",81.2%
same,"viability, T/C","second compound 0.0316 µM, first compound 10 µM",89.1%
same,"viability, T/C","second compound 0.1 µM, first compound 0.0316 µM",87.3%
same,"viability, T/C","second compound 0.1 µM, first compound 0.1 µM",89.9%
same,"viability, T/C","second compound 0.1 µM, first compound 0.316 µM",87.5%
same,"viability, T/C","second compound 0.1 µM, first compound 1 µM",95.3%
same,"viability, T/C","second compound 0.1 µM, first compound 3.16 µM",84%
same,"viability, T/C","second compound 0.1 µM, first compound 10 µM",103%
same,"viability, T/C","second compound 0.316 µM, first compound 0.0316 µM",112%
same,"viability, T/C","second compound 0.316 µM, first compound 0.1 µM",104%
same,"viability, T/C","second compound 0.316 µM, first compound 0.316 µM",86.4%
same,"viability, T/C","second compound 0.316 µM, first compound 1 µM",90.8%
same,"viability, T/C","second compound 0.316 µM, first compound 3.16 µM",86.2%
same,"viability, T/C","second compound 0.316 µM, first compound 10 µM",109%
same,"viability, T/C","second compound 1 µM, first compound 0.0316 µM",99.6%
same,"viability, T/C","second compound 1 µM, first compound 0.1 µM",87.1%
same,"viability, T/C","second compound 1 µM, first compound 0.316 µM",86.9%
same,"viability, T/C","second compound 1 µM, first compound 1 µM",84.5%
same,"viability, T/C","second compound 1 µM, first compound 3.16 µM",94.2%
same,"viability, T/C","second compound 1 µM, first compound 10 µM",136%
same,"viability, T/C","second compound 3.16 µM, first compound 0.0316 µM",108%
same,"viability, T/C","second compound 3.16 µM, first compound 0.1 µM",98.6%
same,"viability, T/C","second compound 3.16 µM, first compound 0.316 µM",95%
same,"viability, T/C","second compound 3.16 µM, first compound 1 µM",94.9%
same,"viability, T/C","second compound 3.16 µM, first compound 3.16 µM",92.2%
same,"viability, T/C","second compound 3.16 µM, first compound 10 µM",111%
same,"viability, T/C","second compound 10 µM, first compound 0.0316 µM",98%
same,"viability, T/C","second compound 10 µM, first compound 0.1 µM",91.4%
same,"viability, T/C","second compound 10 µM, first compound 0.316 µM",93.5%
same,"viability, T/C","second compound 10 µM, first compound 1 µM",89.9%
same,"viability, T/C","second compound 10 µM, first compound 3.16 µM",100%
same,"viability, T/C","second compound 10 µM, first compound 10 µM",104%
